In US20050059610A1 (priority 2003, published 2005):
Entries after “also recorded” stand apart in the source; their conditions may differ. Where two headings read alike, the source gives them in different places.

Legend:
HSP 72 = assay: HSP expression in heart and lung tissue of unstressed rats (Western blot); format: in vivo, rat
Protocol: (§1) GLN enhances heat shock protein expression in the unstressed and stressed myocardium. […] The increase was also observed for HSP 27 (another of the protective heat shock proteins) wherein the induction occurred as early as 4-6 hours and persisted for up to 48-72 hours.
Tissues were then harvested four hours post-GLN administration, and HSP 72 expressions were analyzed by Western blot. The image shown is representative of those obtained in four different experiments. The graph represents a percent increase in HSP 72 over control. […] (*p<0.001, **p<0.01, ***p<0.05 compared to control by ANOVA.)

HSP 72 and 27 = assay: HSP expression in hearts of LPS-injured rats (Western blot); format: in vivo, rat; details: 0.75 g/kg GLN with 5 mg/kg LPS; six hours; vs LR control
Protocol: as §1
Tissues were harvested six hours post-LPS injury and analyzed for HSP 72 expression via Western blot. Each lane represents protein extracts from a separate animal. Relative densitometry are expressed as means ±SE. *−p<0.0005, compared with LR resuscitation alone assessed by Students t test.

[1] = test system: myocardial tissue metabolism; assay: Rat working heart model, myocardial tissue metabolism by 1H-/31P-MRS; format: in vivo
Protocol: The tissue was analyzed for ATP, ADP, and ATP/ADP ratio via ^31P-magnetic resonance spectroscopy (MRS) and for creatine/phosphocreatine content via ^1H-magnetic resonance spectroscopy (MRS). […] The tissue was analyzed for lactate content via ^1H-MRS. […] Glutamine pretreatment enhances myocardial tissue content (glutamine, glutamate, and glucose) content following myocardial I/R injury in the rat. […] Glutamate is a vital tissue substrate following myocardial injury and it is beneficial that a single dose of […]/R injury can preserve tissue levels of this key substrate following injury. […] This key finding confirms that it is possible to enhance myocardial tissue substrate content (particularly glutamate) with a (pre-operative) remote GLN pre-treatment dose. […] Substrates were analyzed via ^1H-MRS. […] The tissue was analyzed for myocardial tissue reduced glutathione content via ^1H-magnetic resonance spectroscopy (MRS). […] Glutamine pretreatment preserves myocardial NAD (+)/NADH content following myocardial I/R injury in the rat. […] The tissue was analyzed for NAD (+)/NADH content via ^31P-magnetic resonance spectroscopy (MRS). […] NAD(+)/NADH was analyzed via […]. (**-p<0.01 versus pre-ischemic values, ##-p<0.01 versus post-ischemic LR control tissue via ANOVA.)

[2] = test system: polymicrobial sepsis (2CLP); assay: Cecal-ligation and double-puncture (2CLP) sepsis: survival, cytokines, lung HSP 72; format: in vivo, Sprague-Dawley rats
Description: Further, increased Interleukin-18 (IL-18) levels appear to play a critical role in cytokine-induced organ failure and can be predictive of mortality in sepsis patients.
Increased Interleukin-18 (IL-18) levels appear to play a critical role in cytokine-induced organ failure and can be predictive of mortality in sepsis patients.

sepsis (CLP) = assay: CLP with or without quercetin (HSP 70 inhibitor): survival, lung HSP/NOS, metabolism, TNF; format: in vivo, Sprague-Dawley rats
Protocol: Methods: Male Sprague-Dawley rats were divided into 5 groups. Two groups were treated with 400 mg/kg of quercetin (Q) IP (HSP 70 inhibitor) 6 hours pre-CLP. […] The final group (CONT, n=6) received no treatment. Five-day survival was monitored. In separate studies, lung was harvested 24-hours post-CLP and tissue metabolism analyzed by 31P- and 1H-MRS. A final study analyzed blood for TNF- at 6 hours post-CLP and lung tissue 6 hours post-CLP for HSP-70, iNOS, eNOS, and activated heat shock factor-1 (HSF-1).

critically ill patients = assay: Clinical outcomes in critically ill patients, glutamine vs control; format: in vivo, human
endotoxin-induced sepsis = assay: Lethal endotoxemia: survival, HSP expression, cytokine release; format: in vivo, rat; details: GLN concurrently with lethal doses of endotoxin
Protocol: Evaluation of pro-inflammatory cytokine release was also assessed following endotoxemia.

[3] = test system: polymicrobial sepsis and peritonitis (CLP); assay: CLP peritonitis/polymicrobial sepsis, GLN 30 minutes after induction, with or without quercetin; format: in vivo, rat
Description: Cecal ligation and puncture (CLP) in the rat was chosen as the appropriate model.

[4] = test system: peripheral blood mononuclear cells; assay: Glutamine-treated peripheral blood mononuclear cells; format: cell-based
[5] = test system: intestinal epithelial cells; assay: Protection of cells against heat and oxidant stress; format: cell-based
Description: This was proven when blockade of HSP 70 expression via quercetin (inhibits HSF-1 binding) and via direct antisense inhibition of the HSP-70 gene (FIG. 12).

critically ill humans = details: cited from earlier work; for tolerability of the maximum dose previously administered in humans: even in critically ill patients
[6] = in vivo; cited from earlier work
[7] = GLN 0.75 g/kg IV one-hour post-CLP, 6 hours post-CLP
[8] = non-pancreatic diagnoses, n = 7
[9] = GLN 30 minutes after induction of peritonitis and sepsis

## NC(=O)CC[C@H](N)C(=O)O [GLN, Glutamine]
HSP 72; unstressed rat heart
  HSP 27 induction, earliest occurrence: 4 to 6 h
  HSP 27 induction, persistence up to: 48 to 72 h
HSP 72; unstressed rats
  HSP 70 and HSP 25 in heart and lung tissue: enhance
HSP 72; unstressed rats, GLN 0.15, 0.45, 0.75 g/kg over 12-15 minutes, tissue four hours post-GLN
  HSP 72 expression in heart and lung tissue vs control (densitometry): significantly enhanced; also recorded: significantly increased
HSP 72 and 27
  HSP 72 and 27 expression in heart (western blot): markedly enhanced
[1]; 0.52 g/kg GLN 18 hours prior, vs control
  total ATP content following I/R injury: improved
[1]; GLN 18 hours prior
  accumulation of myocardial lactate following I/R injury: significant decrease; also recorded: decreased
[1]; GLN 18 hours prior, 1H-MRS
  myocardial tissue content of glutamine and glucose following I/R injury versus LR control: enhanced
  myocardial tissue creatine/phosphocreatine content following I/R injury: enhanced
  myocardial tissue reduced glutathione content following I/R injury: marked enhancement; also recorded: improved
  post-ischemic glutamate levels versus pre-ischemic levels: no decrease
[1]; GLN 18 hours prior, MRS
  myocardial NAD(+)/NADH content following I/R injury: significant preservation; also recorded: improved
[1]; GLN 18 hours prior, post I/R, 1H-MRS
  reduction of the increase in tissue lactate versus control animals: > 55%
[2]; 12, 18, and 24 hours post-2CLP
  expression of IL-18: significantly attenuated
[2]; 6 hours post-2CLP
  expression of IL-6: attenuated
  expression of TNF-α: attenuated
[2]; following 2CLP
  lung HSP 72 expression versus control: enhanced
[2]; single dose GLN 0.75 g/Kg one hour following surgery, control 78%
  5-day mortality rate following 2CLP: 42%
Sepsis (CLP); 24-hours post-CLP, MRS
  lung NAD+: improved
  lung lactate accumulation: attenuated
Sepsis (CLP); 6 hours post-CLP
  lung eNOS: enhanced
  lung iNOS: attenuated
  plasma TNF- expression: attenuated
Sepsis (CLP); GLN 0.75 g/kg IV one-hour post-CLP
  5-day survival: significant improvement
Sepsis (CLP); [7]
  lung HSF-1 activation: enhanced
  lung HSP70 expression: enhanced
Critically ill patients; all diagnoses, n = 15
  ICU days: 15.73 ± 16.18 days
  Length of stay: 29.73 ± 14.46 days
  Maximum Total Bilirubin (units??): 1.23 ± 0.67
  Maximum Total Creatinine (units??): 1.26 ± 0.89
  Number of bacterial infections: 0.20 ± 0.41
  Number of infections: 1.87 ± 2.59
  One or more bacterial infections (%): 20.0%
  One or more infections (%): 60.0%
  Ventilator days: 12.07 ± 15.25 days
Critically ill patients; [8]
  ICU days: 16.71 ± 7.65 days
  Length of stay: 25.29 ± 6.18 days
  Maximum Total Bilirubin (units??): 1.70 ± 0.70
  Maximum Total Creatinine (units??): 1.80 ± 1.07
  Number of bacterial infections: 0.0 ± 0.0
  Number of infections: 1.43 ± 1.40
  One or more infections (%): 57.1%
  One ore more bacterial infection (%): 0%
  Ventilator days: 12.86 ± 9.03 days
endotoxin-induced sepsis
  HSP 70 and 23 following lethal endotoxemia: enhanced
  mortality following lethal endotoxemia: reduced mortality
[3]; CLP model, rat
  serum HSP 70 expression: markedly enhanced; also recorded: approximate four-fold increase
[3]; [9]
  deficient lung HSP 70 expression: markedly enhanced
  lung HSF-1 activation: markedly enhanced
[3]; following sepsis and peritonitis
  NAD+/NADH levels in lung tissue: nearly doubling
[3]; rat, in vivo
  survival following peritonitis and polymicrobial sepsis: significantly improve survival; also recorded: doubling of survival
[4]
  heat shock protein expression: increase
  tumor-necrosis alpha release: significant attenuation
[5]
  protection of cells against heat and oxidant stress: protection
Critically ill humans
  tolerability of the maximum dose previously administered in humans: without adverse side effects
Critically ill humans; listed as L-Glutamine
  tolerability of the maximum dose previously administered in humans: tolerated well without adverse side effects
Critically ill humans; variety of clinical settings
  toxicity in critically ill humans: without any evidence of toxicity
[6]
  half-life: 6 h
